{
  "source": "patent US20030044413A1",
  "about": "“Methods of limiting apoptosis of cells” (Regents of the University of Minnesota, priority 1998, published 2003)",
  "key": {"[1]": {"system": "primary rat hepatocytes", "test": "DCA-induced apoptosis, Hoechst staining, primary rat hepatocytes", "format": "cell-based", "text": "Cell culture and preparation of rat primary hepatocytes. Rat primary hepatocytes were isolated from male Sprague-Dawley rats (200-250 g) by collagenase perfusion as described previously (Mariash et al., J. Biol. Chem, 261, 9583-9586 (1986)). Briefly, rats were aneshtesized with phenobarbitol and the livers were perfused with 0.05% collagenase. Hepatocyte suspensions were obained by passing digested livers through 0.125 mm gauze and washing cells in modified Eagles' medium (MEM, Life Technologies, Inc., Grand Island, N.Y.). […] After isolation, hepatocytes were resuspended in William's E medium (Life Technologies, Inc., Grand Island, N.Y.) supplemented with 26 mM sodium bicarbonate, 23 mM HEPES, 0.01 U/ml insulin, 2 mM L-glutamine, 10 nM dexamethasone, 5.5 mM glucose, 100 U/ml penicillin and 100 U/ml streptomycin and then 1.0×10^6 cells were plated on 35×10 mm […] tissue culture dishes (Becton Dickinson Labware, Lincoln Park, N.J.). The cells were maintained at 37° C. in a humidified atmosphere of 5% CO2 for 3 h. Plates were then washed with medium to remove dead cells, and medium containing 10% heat-inactivated FBS (55° C. for 30 min) was added (Atlanta Biologicals, Inc., Norcross, Ga.). Aliquots of 1.0×10^5 human (HuH-7) hepatoma cells were plated on 35×10 mm tissue culture dishes (Becton Dickinson Labware) and maintained at 37° C. in Dulbecco's MEM (Atlanta Biologicals, Inc.) supplemented with 10% FBS, 100 U/ml penicillin and 100 u/ml streptomycin for 3 h prior to incubation with bile acids.\nIncubation of cells with bile acids. […] The medium was gently removed at the indicated time points and scored for nonviable cells by trypan blue dye exclusion. […]\n(§1) Morphological evaluation of apoptosis. […] Fluorescence was visualized with a Zeiss standard fluorescence microscope (Carl Zeiss, Inc., Thornwood, N.Y.). […] Stained nuclei were scored by blind analysis and categorized according to the condensation and staining characteristics of chromatin. […] Three fields per dish of approximately 500 nuclei were counted; mean values are expressed as the percent of apoptotic nuclei."}, "[2]": {"test": "Bile acid quantification by gas chromatography in HuH-7 cells", "format": "in vitro ADME, human", "conditions": "6 h", "experimental": "In parallel experiments, isolated rat hepatocytes (2×10^7 cells) and HuH-7 cells (2×10^6 cells) were incubated with 50 μM or 100 μM, respectively, of DCA, UDCA or DCA+UDCA for 6 h. Cells were washed 3 times with PBS, pH 7.4, harvested, centrifuged at 800×g for 5 min in a JS-4.0 Beckman rotor (Beckman Instruments, Inc., Schaumburg, Ill.) at 4° C., washed again, and the final pellet was flash-frozen in liquid nitrogen. Cells were then analyzed for intracellular bile acid concentrations by gas chromatography.\nBile acid quantification by gas chromatography. […] Quantification of bile acids was achieved using gas chromatography, by comparing the peak height response of the individual bile acids with the peak height response obtained from the internal standard, nordeoxycholic acid, which was added to each sample prior to bile acid extraction."}, "[3]": {"system": "Saos-2 cells", "test": "Okadaic acid-induced apoptosis, Saos-2 cells", "format": "cell-based, human", "experimental": "(§2) Incubation of cells with ethanol, TGF-β1, anti-Fas antibody or okadaic acid. Freshly isolated rat hepatocytes were cultured for 3 h as described above and then incubated with William's E medium supplemented with either 0.5% ethanol, 50 μM UDCA, ethanol plus UDCA, or no addition (control) for 2 h and 4 h. HuH-7 cells were incubated with Dulbecco's medium supplemented with either 1 nM TGF-β1 (R & D Systems, Minneapolis, Minn.), 100 μM UDCA, TGF-β1+UDCA, or no addition (control) for 24 h, 48 h, and 72 h. Hep G2 cells were incubated with Dulbecco's medium supplemented with either 0.5 μg/ml of anti-Fas antibody CH-11 (Upstate Biotechnology, Inc., Lake Placid, N.Y.), 100 μM UDCA, CH-11+UDCA, or no addition for 48 h. Both HuH-7 cells and human osteogenic sarcoma Saos-2 cells were cultured in Dulbecco's medium supplemented with either 50 nM okadaic acid (Boehringer Mannheim Biochemicals, Inc, Indianapolis, Ind.), 100 μM UDCA, okadaic acid+UDCA, or no addition for 48 h. In all the combination groups, cells were pretreated with UDCA alone for 60 min prior to addition of ethanol, TGF-β1, anti-Fas antibody or okadaic acid.\nMorphological evaluation of apoptosis. Morphology was performed as described previously (Oberhammer et al., Proc. Natl. Acad. Sci. USA 89, 5408-5412 (1992)). Briefly, after fixation (with 4% formaldehyde in PBS, pH 7.4, for 10 min at room temperature), the cells were incubated with Hoechst dye 33258 (Sigma Chemical Co.) at 5 μg/ml in PBS for 5 min, washed with PBS and mounted with PBS:glycerol (3:1, v/v). Fluorescence was visualized with a Zeiss standard fluorescence microscope (Carl Zeiss, Inc., Thornwood, N.Y.). Photographs were taken with Kodak Ektar-1000 film (Eastman Kodak Co.). Stained nuclei were scored by blind analysis and categorized according to the condensation and staining characteristics of chromatin. Normal nuclei were identified as noncondensed chromatin dispersed over the entire nucleus. […] Three fields per dish of approximately 500 nuclei were counted; mean values are expressed as the percent of apoptotic nuclei."}, "[4]": {"system": "HuH-7 cells", "test": "Okadaic acid-induced apoptosis, HuH-7 cells", "format": "cell-based, human", "conditions": "48 h", "experimental": "as §2, with “In all the combination groups, cells were pretreated with UDCA alone for 60 min prior to addition of ethanol, TGF-β1, anti-Fas antibody or okadaic acid.” left out\nas §1"}, "[5]": {"system": "cytochrome c", "test": "Cytochrome c release from isolated mitochondria after MPT", "parameters": "species or system rat", "conditions": "substance alone on isolated mitochondria", "description": "Mitochondria isolation. […] In short, animals were sacrificed by exsanguination under ether anesthesia and the livers removed and rinsed in normal saline. Approximately 10 g of minced liver was homogenized at a speed of 800 rpm using 6 complete up and down strokes with a speed controlled mechanical skill drill and a teflon pestle (Tri-R Model K41, Tri-R Instruments, Rockville Center, N.Y.) in an ice-cold solution of 70 mM sucrose, 220 mM mannitol, 1 mM EGTA and 10 mM HEPES, pH 7.4 as a 10% (wt/vol) homogenate. The homogenate was centrifuged at 600×g for 10 min at 4° C. in an SS-34 rotor in a Sorvall RC5C centrifuge (Sorvall Instruments, Newtown, Conn.), and the postnuclear supernatant was centrifuged at 7,000×g for 10 min at 4° C. […] The pellet was resuspended in 2 mL of homogenate buffer, and 1 mL of the resuspended pellet was carefully layered onto a 35-mL self-generating gradient containing 0.25 M sucrose, 1 mM EGTA and percoll (Pharmacia Fine Chemicals, Piscataway, N.J.) (75:25, vol/vol). The mitochondria were purified by centrifugation at 43,000×g for 30 min at 4° C. using a Beckman Ti60 rotor and a Beckman ultracentrifuge model L8-55 (Beckman Instruments, Inc., Schaumburg, Ill.). The clear supernatant solution removed and the lower turbid layer was resuspended in 30 mL of wash buffer containing 0.1 M KCl, 5 mM 3-(N-morpholino)-propane sulfonic acid (MOPS), and 1 mM EGTA, at pH 7.4 and centrifuged at 7,000×g for 10 min at 4° C. The resulting mitochondria pellet was washed in wash buffer two times. A final wash was carried out in chelex-100-treated buffer (Bio-Rad Laboratories, Richmond, Va.; 200-400 mesh, potassium form) without EGTA. The pellet was suspended in 4 mL of chelex-100-treated resuspension buffer containing 125 mM sucrose, 50 mM KCl, 5 mM HEPES, and 2 mM KH2PO4. The usual yield of mitochondria was approximately 25 mg of protein per gram of liver tissue. Mitochondria were used for experiments within 3 h of isolation. Aliquots were removed for examining the purity of the mitochondria preparation.\nMeasurement of MPT and determination of cytochrome c content in supernatants and mitochondrial pellets after MPT. The MPT was assessed using a spectrophotometric assay measuring high amplitude rapid changes in mitochondria volume. Mitochondria (1 mg protein) were incubated in 1 ml of chelex-100-treated respiration buffer (0.1 M NaCl, 10 mM MOPS, pH 7.4) for 10 min at 25° C. and swelling was monitored at 540 nm in a Beckman DU 64 spectrophotometer. […] Basal values of mitochondria absorbance were measured for 5 min, and the optical density was monitored for an additional 5 min after addition 200 μM DCA or 80 μM phenylarsine oxide (PhAsO; Sigma Chemical Co.). […]"}, "[6]": {"conditions": "coincubation with 100 μM DCA and UDCA"}, "[7]": {"conditions": "incubated with 100 μM of the individual bile acid"}},
  "data": [
    {"compound": "C[C@H](CCC(=O)O)[C@H]1CC[C@H]2[C@@H]3CC[C@@H]4C[C@H](O)CC[C@]4(C)[C@H]3C[C@H](O)[C@]12C", "note": "[DCA, deoxycholic acid]", "values": [
      {"measurement": "percentage of apoptotic cells, increase over control", "setting": "[1]; 50 μM DCA, 2 h", "value": 8, "unit": "fold"},
      {"measurement": "intracellular concentration of the bile acid", "setting": "[2]; [6]", "value": "31.7 ± 15.0", "unit": "nmol"},
      {"measurement": "intracellular concentration of the bile acid", "setting": "[2]; [7]", "value": "28.8±13.3", "unit": "nmol/10^8cells"}
    ]},
    {"compound": "C[C@H](CCC(=O)O)[C@H]1CC[C@H]2[C@@H]3[C@@H](O)C[C@@H]4C[C@H](O)CC[C@]4(C)[C@H]3CC[C@]12C", "note": "[UDCA, ursodeoxycholic acid]", "values": [
      {"measurement": "reduction of the apoptotic response", "setting": "[3]; 50 nM okadaic acid + 100 μM UDCA, 48 h", "value": "> 80", "unit": "%"},
      {"measurement": "Inhibition % Apoptosis", "setting": "[3]; inducer OA, Saos-2, inhibition by UDCA", "value": "81.8 ± 2.3", "unit": "%"},
      {"measurement": "cell viability", "setting": "[1]; 50 μM DCA + 50 μM UDCA, 6 h", "value": "88.5±4.9", "unit": "%"},
      {"measurement": "Inhibition % Apoptosis", "setting": "[1]; inducer DCA, hepatocytes, inhibition by UDCA", "value": "90.9 ± 4.6", "unit": "%"},
      {"measurement": "intracellular concentration of the bile acid", "setting": "[2]; [6]", "value": "45.5 ± 21.5", "unit": "nmol"},
      {"measurement": "intracellular concentration of the bile acid", "setting": "[2]; [7]", "value": "204.7±97.2", "unit": "nmol/10^8cells"},
      {"measurement": "reduction of the apoptotic response", "setting": "[4]; 50 nM okadaic acid + 100 μM UDCA", "value": "> 80", "unit": "%"}
    ]},
    {"compound": "C=C1[C@@H](O)[C@@H]2O[C@]3(CC[C@H](/C=C/[C@@H](C)[C@@H]4CC(C)=C[C@@]5(O[C@H](C[C@@](C)(O)C(=O)O)CC[C@H]5O)O4)O3)CC[C@H]2O[C@@H]1[C@@H](O)C[C@H](C)[C@H]1O[C@@]2(CCCCO2)CC[C@H]1C", "note": "[okadaic acid]", "values": [
      {"measurement": "apoptosis induced", "setting": "[3]; 50 nM okadaic acid, 48 h", "value": "> 30", "unit": "%"},
      {"measurement": "translocation of cytochrome c to the supernatants", "setting": "[5]", "value": "nor did they cause translocation of cytochrome c"},
      {"measurement": "apoptosis induced", "setting": "[4]; 50 nM okadaic acid", "value": "> 30", "unit": "%"}
    ]},
    {"compound": "TGF-β1: transforming growth factor β1, nonmembrane damaging inducer of apoptosis", "values": [
      {"measurement": "translocation of cytochrome c to the supernatants", "setting": "[5]", "value": "nor did they cause translocation of cytochrome c"}
    ]}
  ]
}
